Test results taken from patent US20120165332A1, “SULFONAMIDES AND SULFAMIDES AS ZAP-70 INHIBITORS” (Cellzome Limited, priority 2009, published 2012).
pIC50: −log10 of the molar value.

The molecules below were run against T1, ZAP-70 (Homo sapiens, UniProt P43403) (assay: ZAP-70 kinobeads assay). Details: cell lysate, affinity matrix with immobilized aminopyrido-pyrimidine ligand 24, dot blot detection.
T1 construct: endogenous in cells; host or cells: cell lysate
T1 sequence (P43403 1-619): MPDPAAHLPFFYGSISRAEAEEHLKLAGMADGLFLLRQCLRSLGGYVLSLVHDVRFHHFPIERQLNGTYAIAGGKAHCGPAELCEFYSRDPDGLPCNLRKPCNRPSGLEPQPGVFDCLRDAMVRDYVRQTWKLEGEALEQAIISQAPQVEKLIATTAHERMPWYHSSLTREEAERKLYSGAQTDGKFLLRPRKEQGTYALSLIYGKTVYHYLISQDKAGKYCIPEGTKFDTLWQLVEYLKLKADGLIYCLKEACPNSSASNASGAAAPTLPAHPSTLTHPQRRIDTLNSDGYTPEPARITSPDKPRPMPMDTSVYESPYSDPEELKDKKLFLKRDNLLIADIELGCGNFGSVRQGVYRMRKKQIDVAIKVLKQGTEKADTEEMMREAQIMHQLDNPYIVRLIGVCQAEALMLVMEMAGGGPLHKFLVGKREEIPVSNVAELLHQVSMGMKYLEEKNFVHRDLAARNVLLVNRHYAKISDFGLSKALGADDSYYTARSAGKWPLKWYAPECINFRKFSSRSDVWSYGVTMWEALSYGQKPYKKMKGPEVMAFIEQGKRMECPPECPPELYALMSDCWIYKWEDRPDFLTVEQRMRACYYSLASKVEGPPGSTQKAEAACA
Type: binding
Description: The compounds of the present invention as described in the previous examples can be tested in the ZAP-70 kinobeads assay as described (EP-A 1862802 and WO-A 2007/137867). Briefly, test compounds (at various concentrations) and the affinity matrix with the immobilized aminopyrido-pyrimidine ligand 24 are added to cell lysate aliquots and allowed to bind to the proteins in the lysate sample. After the incubation time the beads with captured proteins are separated from the lysate. Bound proteins are then eluted and the presence ZAP-70 is detected and quantified using a specific antibody in a dot blot procedure and the Odyssey infrared detection system.

`COc1cc(Nc2ncc(F)c(Nc3cccc(C)c3N(CC(N)=O)S(C)(=O)=O)n2)cc(OC)c1OC` [Example 14, 2-(N-(2-(5-fluoro-2-(3,4,5-trimethoxyphenylamino)pyrimidin-4-ylamino)-6-methylphenyl)methylsulfonamido) acetamide] and `COC(=O)CCN(c1c(C)cccc1Nc1nc(Nc2cc(OC)c(OC)c(OC)c2)ncc1F)S(C)(=O)=O` [Example 22, Methyl 3-(N-(2-(5-fluoro-2-(3,4,5-trimethoxyphenylamino)pyrimidin-4-ylamino)-6-methylphenyl)methylsulfonamido)propanoate] fall in the same range of pIC50: 5.00 to 6.00 for the first, 5.00 to 6.00 for the second.

`COc1ccc(Nc2ncc(Cl)c(Nc3ccc(OC)cc3N(CCNC=O)S(C)(=O)=O)n2)c(OC)c1` [Example 11] and `COc1ccc(Nc2nc(Nc3cc(OC)c(OC)cc3C)ncc2Cl)c(N(CCN)S(C)(=O)=O)c1` [Example 9, N-(2-aminoethyl)-N-(2-(5-chloro-2-(4,5-dimethoxy-2-methylphenylamino)pyrimidin-4-ylamino)-5-methoxyphenyl)methanesulfonamide] cannot be ordered by pIC50: 6.00 to 7.00 for the first, at least 7.00 for the second.

First: COc1ccc(Nc2nc(Nc3ccnn3C)ncc2Cl)c(N(C[C@H]2CCC(=O)N2)S(C)(=O)=O)c1 [Example 31]
Second: COc1ccc(Nc2nc(Nc3cc(OC)c(OC)c(OC)c3)ncc2Cl)c(N(CC#N)S(C)(=O)=O)c1 [Example 6, N-(2-(5-chloro-2-(3,4,5-trimethoxyphenylamino)pyrimidin-4-ylamino)-5-methoxyphenyl)-N-(cyanomethyl)methanesulfonamide]
The pIC50 of the first is lower: 5.00 to 6.00 for the first, at least 7.00 for the second.

First: COc1cc(Nc2ncc(F)c(Nc3cccc(C)c3N(CCCC#N)S(C)(=O)=O)n2)cc(OC)c1OC [Example 24, N-(3-cyanopropyl)-N-(2-(5-fluoro-2-(3,4,5-trimethoxyphenylamino)pyrimidin-4-ylamino)-6-methylphenyl)methanesulfonamide]
Second: COc1cc(Nc2ncc(F)c(Nc3cccc(C)c3N(CCCNC=O)S(C)(=O)=O)n2)cc(OC)c1OC [Example 28, N-(3-(N-(2-(5-fluoro-2-(3,4,5-trimethoxyphenylamino)pyrimidin-4-ylamino)-6-methylphenyl)methylsulfonamido)propyl)formamide]
The pIC50 of the first is lower: 5.00 to 6.00 for the first, 6.00 to 7.00 for the second.

With `COc1ccc(Nc2nc(Nc3cc(OC)c(OC)c(OC)c3)ncc2Cl)c(N(Cc2cnc[nH]2)S(C)(=O)=O)c1` [Example 1, N-((1H-imidazol-5-yl)methyl)-N-(2-(5-chloro-2-(3,4,5-trimethoxyphenylamino)pyrimidin-4-ylamino)-5-methoxyphenyl)methanesulfonamide] the pIC50 was 6.00 to 7.00.
